Experimental data: patent publication US6069160A, “Heteroatom-containing benzocyclopentane-oxazolidinones” (Bayer Aktiengesellschaft, priority 1995, dated 2000)
Converted amounts (≈) assume the structure as drawn. Read-outs that look alike come from different tables or passages of the source.

How the values were obtained:
Type in all cases: cell-based
[1] = tested on: Mycobacterium smegmacis DSM 43061; assay: MIC in microtiter plates (Mycobacterium); details: DSM43061, 37° C., 3 to 5 days
Protocol: (§1) The microtiter plates were incubated at 37° C. and read off after about 20 hours (Staph) or after 3 to 5 days (Mycobacterium). The MIC value (μg/ml) indicates the lowest concentration of active substance at which no growth was detectable.

[2] = tested on: Mycobacterium smegmacis DSM 43464; assay: MIC in microtiter plates (Mycobacterium); details: DSM43464, 37° C., 3 to 5 days
Protocol: as §1

[3] = tested on: Mycobacterium smegmacis DSM 43078; assay: MIC in microtiter plates (Mycobacterium); details: DSM43078, 37° C., 3 to 5 days
Protocol: as §1

[4] = tested on: Mycobacterium smegmacis DSM 43465; assay: MIC in microtiter plates (Mycobacterium); details: DSM43465, 37° C., 3 to 5 days
Protocol: as §1

[5] = tested on: Mycobacterium smegmacis DSM 43299; assay: MIC in microtiter plates (Mycobacterium); details: DSM43299, 37° C., 3 to 5 days
Protocol: as §1

[6] = tested on: Mycobacterium smegmacis DSM 43277; assay: MIC in microtiter plates (Mycobacterium); details: DSM43277, 37° C., 3 to 5 days
Protocol: as §1

[7] = tested on: Klebs. 57 USA; assay: MIC by series dilution method; details: 37° C., about 20 hours
Protocol: (§2) The minimum inhibitory concentration (MIC) were determined by a series dilution method on Iso-Sensitest agar (Oxoid). For each test substance, a series of agar plates each comprising concentrations of the active compound decreasing by double dilution in each case was prepared. The agar plates were inoculated with a multipoint inoculator (Denley). Overnight cultures of the pathogens which had been diluted beforehand such that each inoculation point comprised about 10^4 colony-forming particles were used for the inoculation. The inoculated agar plates were incubated at 37° C. and the germ growth was read off after about 20 hours. The MIC value (μg/ml) indicates the lowest active compound concentration at which no growth was detectable with the naked eye.

[8] = tested on: E. coli Neumann; assay: MIC by series dilution method; details: Escherichia coli, 20 h
Protocol: as §2

[9] = tested on: Psdm. Bonn; assay: MIC by series dilution method; details: 37° C., about 20 hours
Protocol: as §2

[10] = tested on: Staph. 133; assay: MIC by series dilution method
Protocol: as §2, with “eye. […]” for “eye.”

[11] = tested on: Staph. 25701; assay: MIC by series dilution method; details: Staph. 25701; 37° C., about 20 hours; read-out: MIC
Protocol: as §2, with “eye. […]” for “eye.”

[12] = tested on: Staph. 48N; assay: MIC by series dilution method; details: Staph. 48N; 37° C., about 20 hours; read-out: MIC
Protocol: as §2, with “eye. […]” for “eye.”

[13] = tested on: Staph. 9TV; assay: MIC by series dilution method; details: Staph. 9TV; 37° C., about 20 hours; read-out: MIC
Protocol: as §2, with “eye. […]” for “eye.”

[14] = Staph. 133, 37° C., about 20 hours, read-out: MIC

SMILES | MIC [1] [µg/mL] | MIC [2] [µg/mL] | MIC [3] [µg/mL] | MIC [4] [µg/mL] | MIC [5] [µg/mL] | MIC [6] [µg/mL] | MIC [7] [µg/mL] | MIC [8] [µg/mL] | MIC [9] [µg/mL] | MIC [10, 14] [µg/mL] | MIC [11] [µg/mL] | MIC [12] [µg/mL] | MIC [13] [µg/mL] | MIC ([10]; 20 h) [µg/mL]
CC(=O)NC[C@H]1CN(c2ccc3c(c2)sc(=O)n3C)C(=O)O1 [Example 18] | 0.25 (≈ 0.778 µM) | 1 (≈ 3.11 µM) | 0.25 (≈ 0.778 µM) | 0.5 (≈ 1.56 µM) | 1 (≈ 3.11 µM) | 0.25 (≈ 0.778 µM) | > 64 | > 64 | > 64 | 0.25 (≈ 0.778 µM) | 0.25 (≈ 0.778 µM) | 0.25 (≈ 0.778 µM) | 0.06 (≈ 0.187 µM) | 
CC(=O)NC[C@H]1CN(c2ccc3c(c2)oc(=O)n3Cc2ccccc2)C(=O)O1 [Example 38] |  |  |  |  |  |  | > 64 | > 64 | > 64 | 4 (≈ 10.5 µM) | 4 (≈ 10.5 µM) | 4 (≈ 10.5 µM) | 1 (≈ 2.62 µM) | 
CCC(=O)NC[C@H]1CN(c2ccc3c(c2)sc(=O)n3C)C(=O)O1 [Example 56] | 1 (≈ 2.98 µM) | 4 (≈ 11.9 µM) | 1 (≈ 2.98 µM) | 0.5 (≈ 1.49 µM) | 1 (≈ 2.98 µM) | 0.25 (≈ 0.745 µM) | > 64 | 64 (≈ 191 µM) | > 64 | 0.5 (≈ 1.49 µM) | 0.5 (≈ 1.49 µM) | 0.5 (≈ 1.49 µM) | 0.25 (≈ 0.745 µM) | 
CCn1c(=O)sc2cc(N3C[C@H](CNC(C)=O)OC3=O)ccc21 [Example 22] |  |  |  |  |  |  | > 64 | > 64 | > 64 | 1 (≈ 2.98 µM) | 1 (≈ 2.98 µM) | 1 (≈ 2.98 µM) | 0.5 (≈ 1.49 µM) | 
CCn1c(=S)sc2cc(N3C[C@H](CNC(C)=O)OC3=O)ccc21 [Example 44] |  |  |  |  |  |  | > 64 | > 64 | > 64 | 0.5 (≈ 1.42 µM) | 0.5 (≈ 1.42 µM) | 0.5 (≈ 1.42 µM) | 0.5 (≈ 1.42 µM) | 
CC(=O)NC[C@H]1CN(c2ccc3[nH]c(=O)oc3c2)C(=O)O1 [Example 24] |  |  |  |  |  |  | > 64 | > 64 | > 64 |  | 16 (≈ 54.9 µM) | 16 (≈ 54.9 µM) | 16 (≈ 54.9 µM) | 8 (≈ 27.5 µM)
CC(=O)NC[C@H]1CN(c2ccc3c(c2)oc(=NC(=O)C2CC2)n3C)C(=O)O1 [Example 94] |  |  |  |  |  |  | > 64 | 64 (≈ 172 µM) | > 64 | 0.5 (≈ 1.34 µM) | 0.5 (≈ 1.34 µM) | 0.5 (≈ 1.34 µM) | 0.25 (≈ 0.671 µM) | 
CCOC(=O)Cn1c(=O)oc2cc(N3C[C@H](CNC(C)=O)OC3=O)ccc21 [Example 39] |  |  |  |  |  |  | > 64 | > 64 | > 64 | 4 (≈ 10.6 µM) | 4 (≈ 10.6 µM) | 4 (≈ 10.6 µM) | 4 (≈ 10.6 µM) | 
